Results from ChEMBL document CHEMBL3228000, “Absolute configuration of glycerol derivatives. 7. Enantiomers of 2-[[[2-(2,6-dimethoxyphenoxy)ethyl]amino]methyl]-1,4-benzodioxane (WB-4101), a potent competitive alpha-adrenergic antagonist” (J Med Chem, 1979).

Key:
[1] = Competitive antagonist at alpha-adrenergic receptor in New Zealand rabbit aorta assessed as methoxamine-induced contraction after 45 mins; assay type: tissue-based, Oryctolagus cuniculus
[2] = biological target: Adrenergic receptor alpha; test: Antagonist at postsynaptic alpha-adrenergic receptor in rat vas deferens; assay type: tissue-based

SMILES | pA2 [1] | pA2 [2]
COc1cccc(OC)c1OCCNC[C@@H]1COc2ccccc2O1.Cl | 7.35 | –
COc1cccc(OC)c1OCCNCC1COc2ccccc2O1 (racemic) | 8.83 | 9.8
COc1cccc(OC)c1OCCNC[C@H]1COc2ccccc2O1.Cl | 9.02 | –
